Laboratory results taken from PubChem BioAssay (NCI).
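Growth conditions: 96-well plates. Treatment: test compound, 48 hours, 5 concentrations. Analysis: linear interpolation between bracketing concentrations; unreached endpoints set to highest concentration. GI50: concentration for 50% inhibition of growth. At the TGI there is no net growth.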

Columns and labels:
Assay in all cases: inhibition of tumour cell growth, NCI panel, 48 h
RXF 393 renal = system: RXF 393 renal
OVCAR-3 ovarian = system: OVCAR-3 ovarian
U251 CNS = system: U251 CNS
786-0 renal = system: 786-0 renal
SNB-19 CNS = system: SNB-19 CNS
NCI/ADR-RES ovarian = system: NCI/ADR-RES ovarian
SK-MEL-28 melanoma = system: SK-MEL-28 melanoma
SR leukemia = system: SR leukemia
DU-145 prostate = system: DU-145 prostate
K-562 leukemia = system: K-562 leukemia
SW-620 colon = system: SW-620 colon
MDA-MB-435 = system: MDA-MB-435
EKVX NSCLC = system: EKVX NSCLC
HL-60(TB) leukemia = system: HL-60(TB) leukemia
SF-295 CNS = system: SF-295 CNS
UO-31 renal = system: UO-31 renal
IGROV1 ovarian = system: IGROV1 ovarian
NCI-H522 lung = system: NCI-H522 lung
SF-539 CNS = system: SF-539 CNS
SF-268 CNS = system: SF-268 CNS
BT-549 breast = system: BT-549 breast
UACC-62 melanoma = system: UACC-62 melanoma
HS 578T breast = system: HS 578T breast
ACHN renal = system: ACHN renal
HCT-116 colon = system: HCT-116 colon
NCI-H23 lung = system: NCI-H23 lung
MOLT-4 leukemia = system: MOLT-4 leukemia
SK-MEL-2 melanoma = system: SK-MEL-2 melanoma
MDA-MB-231 breast = system: MDA-MB-231 breast
RPMI-8226 leukemia = system: RPMI-8226 leukemia
SK-MEL-5 melanoma = system: SK-MEL-5 melanoma
MCF7 breast = system: MCF7 breast
A498 renal = system: A498 renal
A549 NSCLC = system: A549 NSCLC
COLO 205 colon = system: COLO 205 colon
SN12C renal = system: SN12C renal
NCI-H226 lung = system: NCI-H226 lung
NCI-H460 lung = system: NCI-H460 lung
OVCAR-8 ovarian = system: OVCAR-8 ovarian
HCT-15 colon = system: HCT-15 colon
TK-10 renal = system: TK-10 renal
LOX IMVI melanoma = system: LOX IMVI melanoma
KM12 colon = system: KM12 colon
PC-3 prostate = system: PC-3 prostate
HOP-62 NSCLC = system: HOP-62 NSCLC
SNB-75 CNS = system: SNB-75 CNS
CAKI-1 renal = system: CAKI-1 renal
HT29 colon = system: HT29 colon
OVCAR-5 ovarian = system: OVCAR-5 ovarian

Q: `COc1ccc(/C=C/C(=O)c2ccc(Cl)cc2Cl)cc1` was tested. Which GI50 (RXF 393 renal) did it give?
A: 12.7 µM

Q: And the TGI (RXF 393 renal)?
A: 29.9 µM

Q: And the GI50 (OVCAR-3 ovarian)?
A: 18.9 µM

Q: What about the TGI (OVCAR-3 ovarian) of the same compound?
A: 39 µM

Q: And the GI50 (U251 CNS)?
A: 13.2 µM

Q: What about the TGI (U251 CNS) of the same compound?
A: 31.3 µM

Q: What about the GI50 (786-0 renal) of the same compound?
A: 13.9 µM

Q: What about the TGI (786-0 renal) of the same compound?
A: 30.7 µM

Q: And the GI50 (SNB-19 CNS)?
A: 21.5 µM

Q: And the TGI (SNB-19 CNS)?
A: 75.3 µM

Q: And the GI50 (NCI/ADR-RES ovarian)?
A: 15.9 µM

Q: What about the TGI (NCI/ADR-RES ovarian) of the same compound?
A: 41.5 µM

Q: What about the GI50 (SK-MEL-28 melanoma) of the same compound?
A: 34 µM

Q: And the TGI (SK-MEL-28 melanoma)?
A: 73.1 µM

Q: And the GI50 (SR leukemia)?
A: 1.88 µM

Q: And the TGI (SR leukemia)?
A: > 100 µM

Q: What about the GI50 (DU-145 prostate) of the same compound?
A: 16 µM

Q: What about the TGI (DU-145 prostate) of the same compound?
A: 33.1 µM

Q: What about the GI50 (K-562 leukemia) of the same compound?
A: 3.37 µM

Q: And the TGI (K-562 leukemia)?
A: > 100 µM

Q: What about the GI50 (SW-620 colon) of the same compound?
A: 9.36 µM

Q: And the TGI (SW-620 colon)?
A: > 100 µM

Q: What about the GI50 (MDA-MB-435) of the same compound?
A: 11.9 µM

Q: What about the TGI (MDA-MB-435) of the same compound?
A: 44.5 µM

Q: What about the GI50 (EKVX NSCLC) of the same compound?
A: 20.1 µM

Q: What about the TGI (EKVX NSCLC) of the same compound?
A: 47.3 µM

Q: And the GI50 (HL-60(TB) leukemia)?
A: 9.98 µM

Q: What about the TGI (HL-60(TB) leukemia) of the same compound?
A: 38.1 µM

Q: What about the GI50 (SF-295 CNS) of the same compound?
A: 20.4 µM

Q: What about the TGI (SF-295 CNS) of the same compound?
A: 53.4 µM

Q: And the GI50 (UO-31 renal)?
A: 29.1 µM

Q: What about the TGI (UO-31 renal) of the same compound?
A: 94.5 µM

Q: And the GI50 (IGROV1 ovarian)?
A: 20.5 µM

Q: What about the TGI (IGROV1 ovarian) of the same compound?
A: 59 µM

Q: And the GI50 (NCI-H522 lung)?
A: 30.1 µM

Q: What about the TGI (NCI-H522 lung) of the same compound?
A: > 100 µM

Q: And the GI50 (SF-539 CNS)?
A: 18.9 µM

Q: And the TGI (SF-539 CNS)?
A: 37.8 µM

Q: What about the GI50 (SF-268 CNS) of the same compound?
A: 19 µM

Q: And the TGI (SF-268 CNS)?
A: 41.1 µM

Q: What about the GI50 (BT-549 breast) of the same compound?
A: 16.7 µM

Q: And the TGI (BT-549 breast)?
A: 36.8 µM

Q: What about the GI50 (UACC-62 melanoma) of the same compound?
A: 15 µM

Q: And the TGI (UACC-62 melanoma)?
A: 30.3 µM

Q: And the GI50 (HS 578T breast)?
A: 26.2 µM

Q: What about the TGI (HS 578T breast) of the same compound?
A: 65.4 µM

Q: And the GI50 (ACHN renal)?
A: 17.3 µM

Q: What about the TGI (ACHN renal) of the same compound?
A: 33.8 µM

Q: What about the GI50 (HCT-116 colon) of the same compound?
A: 9.05 µM

Q: What about the TGI (HCT-116 colon) of the same compound?
A: 24.5 µM

Q: And the GI50 (NCI-H23 lung)?
A: 18.8 µM

Q: And the TGI (NCI-H23 lung)?
A: 42.8 µM

Q: What about the GI50 (MOLT-4 leukemia) of the same compound?
A: 3.53 µM

Q: What about the TGI (MOLT-4 leukemia) of the same compound?
A: > 100 µM

Q: What about the GI50 (SK-MEL-2 melanoma) of the same compound?
A: 24.4 µM

Q: What about the TGI (SK-MEL-2 melanoma) of the same compound?
A: 70.9 µM

Q: What about the GI50 (MDA-MB-231 breast) of the same compound?
A: 20.5 µM

Q: What about the TGI (MDA-MB-231 breast) of the same compound?
A: 46.7 µM

Q: What about the GI50 (RPMI-8226 leukemia) of the same compound?
A: 3.03 µM

Q: What about the TGI (RPMI-8226 leukemia) of the same compound?
A: 6.31 µM

Q: And the GI50 (SK-MEL-5 melanoma)?
A: 17.9 µM

Q: And the TGI (SK-MEL-5 melanoma)?
A: 39 µM

Q: What about the GI50 (MCF7 breast) of the same compound?
A: 9.75 µM

Q: What about the TGI (MCF7 breast) of the same compound?
A: 27.5 µM

Q: And the GI50 (A498 renal)?
A: 10.7 µM

Q: And the TGI (A498 renal)?
A: 24.2 µM

Q: And the GI50 (A549 NSCLC)?
A: 21.4 µM

Q: What about the TGI (A549 NSCLC) of the same compound?
A: 53.6 µM

Q: What about the GI50 (COLO 205 colon) of the same compound?
A: 32 µM

Q: What about the TGI (COLO 205 colon) of the same compound?
A: > 100 µM

Q: And the GI50 (SN12C renal)?
A: 20.4 µM

Q: What about the TGI (SN12C renal) of the same compound?
A: 43.2 µM

Q: And the GI50 (NCI-H226 lung)?
A: 20.4 µM

Q: And the TGI (NCI-H226 lung)?
A: 46.6 µM

Q: And the GI50 (NCI-H460 lung)?
A: 19.2 µM

Q: And the TGI (NCI-H460 lung)?
A: 41.3 µM

Q: And the GI50 (OVCAR-8 ovarian)?
A: 21.3 µM

Q: What about the TGI (OVCAR-8 ovarian) of the same compound?
A: 55.9 µM

Q: What about the GI50 (HCT-15 colon) of the same compound?
A: 12.2 µM

Q: What about the TGI (HCT-15 colon) of the same compound?
A: 37 µM

Q: What about the GI50 (TK-10 renal) of the same compound?
A: 18.9 µM

Q: What about the TGI (TK-10 renal) of the same compound?
A: 37.4 µM

Q: And the GI50 (LOX IMVI melanoma)?
A: 15.9 µM

Q: What about the TGI (LOX IMVI melanoma) of the same compound?
A: 32.1 µM

Q: What about the GI50 (KM12 colon) of the same compound?
A: 13.8 µM

Q: What about the TGI (KM12 colon) of the same compound?
A: 40.5 µM

Q: What about the GI50 (PC-3 prostate) of the same compound?
A: 6.1 µM

Q: What about the TGI (PC-3 prostate) of the same compound?
A: 21.9 µM

Q: And the GI50 (HOP-62 NSCLC)?
A: 20.3 µM

Q: What about the TGI (HOP-62 NSCLC) of the same compound?
A: 48.8 µM

Q: And the GI50 (SNB-75 CNS)?
A: 22.2 µM

Q: What about the TGI (SNB-75 CNS) of the same compound?
A: 44.1 µM

Q: And the GI50 (CAKI-1 renal)?
A: 23.7 µM

Q: And the TGI (CAKI-1 renal)?
A: 50.1 µM

Q: And the GI50 (HT29 colon)?
A: 33.8 µM

Q: And the TGI (HT29 colon)?
A: > 100 µM

Q: What about the GI50 (OVCAR-5 ovarian) of the same compound?
A: 25.5 µM

Q: What about the TGI (OVCAR-5 ovarian) of the same compound?
A: 78.5 µM
